Reference: the supplement of paper PMC11208160

assay: recombinant UMI read abundance after kanamycin selection (control-corrected) (log10(CPM+1)); higher = more efficient recombination; extreme values may be limits of the assay; sequences stand for … in AGTGCAGAGAAAATCGGCCAGTTTTCTCTGCCTGCAGTCCGCATGCCGTGGGACCCCTTGGGTTCTAACCTGTTGCCTAGATTTATGCAGCGGACTGCCTTTCTCCCAAAGTGATAAACCGG…AGGTTGGTTTCACT; site = the 11-nt donor
Description: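 Pooled E. coli donor-specificity screen for the IS621 bridge recombinase. Each library member carries a reprogrammed 11-nt donor and a full-length LE bridge RNA expressed in cis from the natural promoter, with a paired donor-binding loop (8-nt LDG + 4-nt RDG) and a target-binding loop fixed to T5. It is co-electroporated with a T5 target plasmid; recombinase is induced with 0.07 mM IPTG and recombinants are selected on kanamycin. UMIs are counted as CPM, averaged over two biological replicates and corrected by the unselected control. Molecule = full bridge RNA written as DNA, built from the T5 scaffold: LDG = donor specificity nt 1-8, RDG = reverse complement of nt 8-11.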
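Further: IS621 bridge recombinase in Escherichia coli cells against a fixed T5 target plasmid.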

First: ACTAGAACATGGACCGGTTTTCCCGGTAATCCGTATTTGAG (site ACTAGAGCTCT)
Second: ACTAGAACATGGACCGGTTTTCCCGGTAATCCGTATTTGAG (site ACTAGATCTCT)
The “recombinant UMI read abundance (log10)” value of the first is lower: 0.324 for the first, 1.72 for the second.

Going from “ACTAGAACATGGACCGGTTTTCCCGGTAATCCGTATTTGAG (site ACTAGCACTCT)” to “ACTAGAACATGGACCGGTTTTCCCGGTAATCCGTATTTGAG (site ACTAGGACTCT)”, the “recombinant UMI read abundance (log10)” value rises from 0.0125 to 0.407.

Compared with “ACTAGAACATGGACCGGTTTTCCCGGTAATCCGTATTTGAG (site ACTAGTACTCT)”, “ACTAGAACATGGACCGGTTTTCCCGGTAATCCGTATTTGAG (site ACTATAACTCT)” is higher in “recombinant UMI read abundance (log10)” value: 0.0383 for the first, 1.22 for the second.

“ACTAGAACATGGACCGGTTTTCCCGGTAATCCGTATTTGAG (site ACTCGAACTCT)” and “ACTAGAACATGGACCGGTTTTCCCGGTAATCCGTATTTGAG (site ACTGGAACTCT)” are within 0.2 log units of each other in “recombinant UMI read abundance (log10)” value: 0.115 for the first, 0.3 for the second.

“ACTAGAACATGGACCGGTTTTCCCGGTAATCCGTATTTGAG (site ACTTGAACTCT)” and “ACTAGAACATGGACCGGTTTTCCCGGTAATCCGTATTTGAG (site AGTAGAACTCT)” are within 0.2 log units of each other in “recombinant UMI read abundance (log10)” value: 0.118 for the first, 0.227 for the second.

“ACTAGAACATGGACCGGTTTTCCCGGTAATCCGTATTTGAG (site ATTAGAACTCT)” and “ACTAGAACATGGACCGGTTTTCCCGGTAATCCGTATTTGAG (site CCTAGAACTCT)” are within 0.2 log units of each other in “recombinant UMI read abundance (log10)” value: 1.34 for the first, 1.33 for the second.

Compared with “ACTAGAACATGGACCGGTTTTCCCGGTAATCCGTATTTGAG (site GCTAGAACTCT)”, “ACTAGAACATGGACCGGTTTTCCCGGTAATCCGTATTTGAG (site TCTAGAACTCT)” is higher in “recombinant UMI read abundance (log10)” value: 0.34 for the first, 0.854 for the second.

“ACTAGAACATGGACCGGTTTTCCCGGTAATCCGTATTTGCG (site ACTAGAACTCA)” and “ACTAGAACATGGACCGGTTTTCCCGGTAATCCGTATTTGCG (site ACTAGAACTCC)” are within 0.2 log units of each other in “recombinant UMI read abundance (log10)” value: 0.0146 for the first, 0.0147 for the second.

Going from “ACTAGAACATGGACCGGTTTTCCCGGTAATCCGTATTTGCG (site ACTAGAACTCG)” to “ACTAGAACATGGACCGGTTTTCCCGGTAATCCGTATTTGCG (site ACTAGAACTCT)”, the “recombinant UMI read abundance (log10)” value falls from 2.19 to 0.412.

Going from “ACTAGACCATGGACCGGTTTTCCCGGTAATCCGTATTTGGA (site ACTAGACCTTC)” to “ACTAGAGCATGGACCGGTTTTCCCGGTAATCCGTATTTGAG (site ACTAGAACTCT)”, the “recombinant UMI read abundance (log10)” value rises from 0.014 to 1.52.

Going from “ACTAGAGCATGGACCGGTTTTCCCGGTAATCCGTATTTGAG (site ACTAGACCTCT)” to “ACTAGAGCATGGACCGGTTTTCCCGGTAATCCGTATTTGAG (site ACTAGAGCTCT)”, the “recombinant UMI read abundance (log10)” value rises from 0 to 2.15.

First: ACTAGAGCATGGACCGGTTTTCCCGGTAATCCGTATTTGAG (site ACTAGATCTCT)
Second: ACTAGAGCATGGACCGGTTTTCCCGGTAATCCGTATTTGCA (site ACTAGAGCTTG)
The “recombinant UMI read abundance (log10)” value of the first is lower: 1.65 for the first, 2.15 for the second.

First: ACTAGCGCATGGACCGGTTTTCCCGGTAATCCGTATTTGGT (site ACTAGAGCTAC)
Second: ACTAGCGCATGGACCGGTTTTCCCGGTAATCCGTATTTGGT (site ACTAGCGCTAC)
The “recombinant UMI read abundance (log10)” value of the first is lower: 0.428 for the first, 1.86 for the second.

“ACTAGCGCATGGACCGGTTTTCCCGGTAATCCGTATTTGGT (site ACTAGGGCTAC)” and “ACTAGCGCATGGACCGGTTTTCCCGGTAATCCGTATTTGGT (site ACTAGTGCTAC)” are within 0.2 log units of each other in “recombinant UMI read abundance (log10)” value: 0.00433 for the first, 0.00815 for the second.

First: ACTAGGACATGGACCGGTTTTCCCGGTAATCCGTATTTGAG (site ACTAGAACTCT)
Second: ACTAGGACATGGACCGGTTTTCCCGGTAATCCGTATTTGAG (site ACTAGCACTCT)
The “recombinant UMI read abundance (log10)” value of the first is higher: 2.04 for the first, 0.00393 for the second.

Compared with “ACTAGGACATGGACCGGTTTTCCCGGTAATCCGTATTTGAG (site ACTAGGACTCT)”, “ACTAGGACATGGACCGGTTTTCCCGGTAATCCGTATTTGAG (site ACTAGTACTCT)” is lower in “recombinant UMI read abundance (log10)” value: 2.15 for the first, 0.226 for the second.

Compared with “ACTAGGGCATGGACCGGTTTTCCCGGTAATCCGTATTTGGT (site ACTAGAGCTAC)”, “ACTAGGGCATGGACCGGTTTTCCCGGTAATCCGTATTTGGT (site ACTAGCGCTAC)” is lower in “recombinant UMI read abundance (log10)” value: 1.2 for the first, 0.00536 for the second.

Compared with “ACTAGGGCATGGACCGGTTTTCCCGGTAATCCGTATTTGGT (site ACTAGGGCTAC)”, “ACTAGGGCATGGACCGGTTTTCCCGGTAATCCGTATTTGGT (site ACTAGTGCTAC)” is lower in “recombinant UMI read abundance (log10)” value: 1.2 for the first, 0.0165 for the second.

Compared with “ACTAGTACATGGACCGGTTTTCCCGGTAATCCGTATTTGGT (site ACTAGTACTAC)”, “ACTAGTACATGGACCGGTTTTCCCGGTAATCCGTATTTGGT (site ACTAGTCCTAC)” is lower in “recombinant UMI read abundance (log10)” value: 1.19 for the first, 0.00589 for the second.

“ACTAGTACATGGACCGGTTTTCCCGGTAATCCGTATTTGGT (site ACTAGTGCTAC)” and “ACTAGTACATGGACCGGTTTTCCCGGTAATCCGTATTTGGT (site ACTAGTTCTAC)” are within 0.2 log units of each other in “recombinant UMI read abundance (log10)” value: 0.181 for the first, 0 for the second.

Going from “ACTAGTGCATGGACCGGTTTTCCCGGTAATCCGTATTTGCC (site ACTAGTGCTGG)” to “ACTAGTTCATGGACCGGTTTTCCCGGTAATCCGTATTTGAA (site ACTAGTTCTTT)”, the “recombinant UMI read abundance (log10)” value falls from 1.93 to 1.03.

“ACTATGCCATGGACCGGTTTTCCCGGTAATCCGTATTTGTC (site ACTATGCCTGA)” and “ACTCATCCATGGACCGGTTTTCCCGGTAATCCGTATTTGAC (site ACACATCCTGT)” are the same in “recombinant UMI read abundance (log10)” value: 0 for the first, 0 for the second.

First: ACTCATCCATGGACCGGTTTTCCCGGTAATCCGTATTTGAC (site ACCCATCCTGT)
Second: ACTCATCCATGGACCGGTTTTCCCGGTAATCCGTATTTGAC (site ACGCATCCTGT)
The “recombinant UMI read abundance (log10)” value of the first is higher: 0.872 for the first, 0.525 for the second.

First: ACTCATCCATGGACCGGTTTTCCCGGTAATCCGTATTTGAC (site ACTCATCCTGT)
Second: ACTCCAACATGGACCGGTTTTCCCGGTAATCCGTATTTGCT (site ACTCCAACTAG)
The “recombinant UMI read abundance (log10)” value of the first is lower: 0.798 for the first, 1.66 for the second.

First: ACTCCACCATGGACCGGTTTTCCCGGTAATCCGTATTTGTG (site ACTCCACCTCA)
Second: ACTCCGACATGGACCGGTTTTCCCGGTAATCCGTATTTGGC (site ACTCCGACTGC)
The “recombinant UMI read abundance (log10)” value of the first is lower: 0.0232 for the first, 1.98 for the second.

Going from “ACTCGAACATGGACCGGTTTTCCCGGTAATCCGTATTTGTC (site ACACGAACTGA)” to “ACTCGAACATGGACCGGTTTTCCCGGTAATCCGTATTTGTC (site ACCCGAACTGA)”, the “recombinant UMI read abundance (log10)” value rises from 0 to 1.84.

Compared with “ACTCGAACATGGACCGGTTTTCCCGGTAATCCGTATTTGTC (site ACGCGAACTGA)”, “ACTCGAACATGGACCGGTTTTCCCGGTAATCCGTATTTGTC (site ACTCGAACTGA)” is higher in “recombinant UMI read abundance (log10)” value: 1.26 for the first, 2 for the second.

Compared with “ACTCGCTCATGGACCGGTTTTCCCGGTAATCCGTATTTGGT (site ACTCGCTCTAC)”, “ACTCTACCATGGACCGGTTTTCCCGGTAATCCGTATTTGCT (site ACTCTACCTAG)” is lower in “recombinant UMI read abundance (log10)” value: 2.03 for the first, 0 for the second.

Compared with “ACTGACACATGGACCGGTTTTCCCGGTAATCCGTATTTGAC (site ACTGACACTGT)”, “ACTTATGCATGGACCGGTTTTCCCGGTAATCCGTATTTGCT (site ACTTATGCTAG)” is lower in “recombinant UMI read abundance (log10)” value: 2.83 for the first, 0.0248 for the second.

Compared with “ACTTCGCCATGGACCGGTTTTCCCGGTAATCCGTATTTGCT (site ACTTCGCCTAG)”, “ACTTGATCATGGACCGGTTTTCCCGGTAATCCGTATTTGGC (site ACTTGATCTGC)” is higher in “recombinant UMI read abundance (log10)” value: 0.0122 for the first, 1.24 for the second.

First: ACTTGCCCATGGACCGGTTTTCCCGGTAATCCGTATTTGAT (site ACTTGCCCTAT)
Second: ACTTGCCCATGGACCGGTTTTCCCGGTAATCCGTATTTGAT (site CCTTGCCCTAT)
The “recombinant UMI read abundance (log10)” value of the first is higher: 0.398 for the first, 0.0521 for the second.

“ACTTGCCCATGGACCGGTTTTCCCGGTAATCCGTATTTGAT (site GCTTGCCCTAT)” and “ACTTGCCCATGGACCGGTTTTCCCGGTAATCCGTATTTGAT (site TCTTGCCCTAT)” are within 0.2 log units of each other in “recombinant UMI read abundance (log10)” value: 0.0168 for the first, 0.0192 for the second.

Going from “ACTTTGGCATGGACCGGTTTTCCCGGTAATCCGTATTTGTA (site ACTTTGGCTTA)” to “AGAAAACCATGGACCGGTTTTCCCGGTAATCCGTATTTGCG (site AGAAAACCTCG)”, the “recombinant UMI read abundance (log10)” value falls from 1.26 to 0.

Compared with “AGAAACGCATGGACCGGTTTTCCCGGTAATCCGTATTTGCT (site AGAAAAGCTAG)”, “AGAAACGCATGGACCGGTTTTCCCGGTAATCCGTATTTGCT (site AGAAACGCTAG)” is higher in “recombinant UMI read abundance (log10)” value: 1.84 for the first, 2.81 for the second.

“AGAAACGCATGGACCGGTTTTCCCGGTAATCCGTATTTGCT (site AGAAAGGCTAG)” and “AGAAACGCATGGACCGGTTTTCCCGGTAATCCGTATTTGCT (site AGAAATGCTAG)” are the same in “recombinant UMI read abundance (log10)” value: 0 for the first, 0 for the second.

Going from “AGAAAGACATGGACCGGTTTTCCCGGTAATCCGTATTTGCG (site AGAAAGACTCG)” to “AGAAAGACATGGACCGGTTTTCCCGGTAATCCGTATTTGCG (site AGGAAGACTTG)”, the “recombinant UMI read abundance (log10)” value falls from 2.63 to 0.
